{"source": "patent US20080207748A1", "about": "“VITAMIN C PREPARATION” (INNOVATION LABS, INC., priority 2007, published 2008)", "key": {"Plasma OxLDL": {"test_system": "Plasma OxLDL", "assay": "Human plasma oxidized LDL after single oral dose", "assay_type": "in vivo", "conditions": "for Plasma OxLDL Change: 0 vs 24 hrs", "experimental": "(§1) The human serum vitamin C, plasma C-reactive protein, oxidized LDL, and urine uric and oxalate levels were determined for the formulation of Example 1 and other vitamin C formulations.\n(§2) Healthy volunteers maintained a low vitamin C diet for 14 days. […] Blood samples were collected immediately prior to the oral dose administration and at various time points post ingestion. Urine was collected over a 24-hour time period and saved for oxalate and uric acid assays. Serum vitamin C levels were measured by HPLC with coulometric electrochemical detection. Plasma C-reactive protein and oxidized LDL were measured by enzyme linked immunosorbent assay (ELISA) and urine uric acid and oxalate levels were measured by enzymatic methods."}, "[1]": {"test_system": "Plasma C-Reactive Protein", "assay": "Human plasma C-reactive protein after single oral dose", "assay_type": "in vivo", "conditions": "for Plasma C-Reactive Protein Change: 0 vs 24 hrs", "experimental": "as §1, §2"}, "[2]": {"test_system": "H9 cells, a human T-cell line", "assay": "Vitamin C absorption (uptake) in H9 cells", "assay_type": "cell-based", "conditions": "50 μM", "experimental": "The rate of vitamin C absorption in H9 cells, a human T-cell line, was determined for the formulation of Example 1 and other vitamin C formulations.\nAt the times indicated in FIG. 1, cells were harvested and measured for vitamin C and protein content. The cellular vitamin C levels of the cells were measured using the 2,4-dinitrophenylhydrazine spectrophotometric technique (Bessey et al., 1947)."}, "[3]": {"test_system": "human T-lymphoblastic H9 cell line", "assay": "Inhibition of PHA- or bifenthrin-induced homotypic T-lymphocyte aggregation", "assay_type": "cell-based", "conditions": "H9 cells, 0.5 μM vitamin C form, 30 minutes at 37° C.; for homotypic aggregation (aggregate size), activator: None: no activator", "experimental": "The ability to inhibit pesticide-induced T-lymphocyte aggregation was determined for the formulation of Example 1 and other vitamin C formulations.\nThe human T-lymphoblastic H9 cell line was incubated with vehicle (-) or with one of two activators of T-lymphocyte aggregation, phytohemagglutinin (PHA; […]) or bifenthrin ([…]). […] After treatment, the ability of each formulation to inhibit homotypic aggregation was measured by counting aggregate size at 400× magnification."}, "[4]": {"assay": "Human serum vitamin C levels after single oral dose", "assay_type": "in vivo", "experimental": "as §1, §2"}, "[5]": {"assay": "Human urine uric acid after single oral dose", "assay_type": "in vivo", "conditions": "single oral dose 1000 mg, urine collected over 24 hours", "experimental": "as §1, §2"}, "[6]": {"assay": "Human urine oxalate after single oral dose", "assay_type": "in vivo", "conditions": "single oral dose 1000 mg, urine collected over 24 hours", "experimental": "as §1, §2"}, "[7]": {"conditions": "0 hrs (immediately prior to oral dose)"}, "[8]": {"conditions": "single oral dose 1000 mg, 24 hrs"}}}
{"compound": "O=C1O[C@H]([C@@H](O)CO)C(O)=C1O", "note": "[AA, ascorbic acid]", "values": [{"measurement": "Plasma OxLDL Change", "setting": "Plasma OxLDL", "value": 0.89, "unit": "U/ml"}, {"measurement": "Plasma C-Reactive Protein", "setting": "[1]; [7]", "value": "129.75 ± 26", "unit": "ng/mL"}, {"measurement": "Plasma C-Reactive Protein Change", "setting": "[1]", "value": 12.75, "unit": "ng/mL"}, {"measurement": "Plasma C-Reactive Protein", "setting": "[1]; [8]", "value": "117.00 ± 33", "unit": "ng/mL"}, {"measurement": "cellular vitamin C levels (peak)", "setting": "[2]; at approximately two hours", "value": 31, "unit": "nmol/mg protein"}, {"measurement": "cellular vitamin C levels", "setting": "[2]; at fifteen minutes", "value": "7±1.4", "unit": "nmol/mg protein"}, {"measurement": "homotypic aggregation (aggregate size), activator: PHA", "setting": "[3]", "value": "75 ± 12"}, {"measurement": "homotypic aggregation (aggregate size), activator: Bifenthrin", "setting": "[3]", "value": "130 ± 5"}, {"measurement": "homotypic aggregation (aggregate size), activator: None", "setting": "[3]", "value": "9 ± 4"}]}
{"compound": "calcium ascorbate [CaA]", "values": [{"measurement": "Serum Vitamin C Levels", "setting": "[4]; 0 hrs (immediately prior to single oral dose of 1000 mg)", "value": "0.50 ± 0.05", "unit": "mg/dL"}, {"measurement": "Serum Vitamin C Levels", "setting": "[4]; single oral dose 1000 mg, 1 hr post-admin", "value": "0.88 ± 0.10", "unit": "mg/dL"}, {"measurement": "Serum Vitamin C Levels", "setting": "[4]; single oral dose 1000 mg, 2 hrs post-admin", "value": "1.12 ± 0.17", "unit": "mg/dL"}, {"measurement": "Serum Vitamin C Levels", "setting": "[4]; single oral dose 1000 mg, 4 hrs post-admin", "value": "1.03 ± 0.13", "unit": "mg/dL"}, {"measurement": "Serum Vitamin C Levels", "setting": "[4]; single oral dose 1000 mg, 6 hrs post-admin", "value": "1.0 ± 0.13", "unit": "mg/dL"}, {"measurement": "Serum Vitamin C Levels", "setting": "[4]; single oral dose 1000 mg, 24 hrs post-admin", "value": "0.59 ± 0.09", "unit": "mg/dL"}, {"measurement": "Plasma OxLDL", "setting": "Plasma OxLDL; [7]", "value": "60.56 ± 5", "unit": "U/ml"}, {"measurement": "Plasma OxLDL Change", "setting": "Plasma OxLDL", "value": 3.78, "unit": "U/ml"}, {"measurement": "Plasma OxLDL", "setting": "Plasma OxLDL; [8]", "value": "57.67 ± 6", "unit": "U/ml"}, {"measurement": "Plasma C-Reactive Protein", "setting": "[1]; [7]", "value": "189.17 ± 41", "unit": "ng/mL"}, {"measurement": "Plasma C-Reactive Protein Change", "setting": "[1]", "value": 8.34, "unit": "ng/mL"}, {"measurement": "Plasma C-Reactive Protein", "setting": "[1]; [8]", "value": "180.83 ± 43", "unit": "ng/mL"}, {"measurement": "Urine Markers: Uric Acid", "setting": "[5]", "value": "39.75 ± 10.5", "unit": "mg/dL"}, {"measurement": "Urine Markers: Oxalate", "setting": "[6]", "value": "17.8 ± 2.6", "unit": "mg/dL"}, {"measurement": "homotypic aggregation (aggregate size), activator: PHA", "setting": "[3]", "value": "110 ± 10"}, {"measurement": "homotypic aggregation (aggregate size), activator: Bifenthrin", "setting": "[3]", "value": "137 ± 8"}, {"measurement": "homotypic aggregation (aggregate size), activator: None", "setting": "[3]", "value": "12 ± 4"}]}
